Results taken from article PMC10599482 (Chemical Science, 2023).

Assay: CD spectroscopy, percent helicity
Type: physicochemical
Conditions: 50.0% TFE aqueous solution, 0.1 mg/mL peptide, 20 °C, calculated from [θ]222

## CC[C@H](C)[C@H](NC(=O)[C@H](C)NC(=O)[C@H](CCC(=O)O)NC(=O)[C@H](CCC(=O)O)NC(=O)[C@H](CC(C)C)NC(=O)[C@H](CCCCN)NC(=O)[C@H](CCCCN)NC(=O)[C@H](CCSC)NC(=O)[C@H](CCC(=O)O)NC(=O)[C@H](Cc1ccc(O)cc1)NC(=O)[C@H](CCC(=O)O)NC(=O)[C@H](CC(C)C)NC(=O)[C@H](CC(=O)O)NC(=O)[C@H](CC(C)C)NC(=O)[C@H](Cc1ccccc1)NC(=O)[C@@H](NC(=O)[C@@H](NC(=O)[C@H](CC(N)=O)NC(=O)[C@@H](NC(=O)[C@H](CCC(N)=O)NC(=O)[C@H](CC(=O)O)NC(=O)[C@H](CC(C)C)NC(=O)[C@H](CO)NC(C)=O)[C@@H](C)CC)C(C)C)[C@@H](C)O)C(=O)N[C@@H](CCCCN)C(=O)N[C@@H](CCCCN)C(=O)N[C@@H](CC(C)C)C(=O)N[C@@H](CCC(=O)O)C(=O)N[C@@H](CCC(=O)O)C(=O)N[C@@H](CO)C(=O)N[C@@H](Cc1ccc(O)cc1)C(=O)N[C@H](C(=O)N[C@@H](CC(=O)O)C(=O)N[C@@H](CC(C)C)C(=O)N[C@@H](CCCCN)C(=O)N[C@@H](CCC(=O)O)C(=O)N[C@@H](CC(C)C)C(N)=O)[C@@H](C)CC [EK1]
  α-Helicity (%): 13.6%
